Tests used:
Rpn11 [1] = biological target: T1, Rpn11 (Homo sapiens (Human), UniProt O00487); assay: Rpn11 activity assay (fluorescence polarization, Ub4-pepOG cleavage by 26S proteasome); type: biochemical; conditions: for Rpn11 assay activity (in words): screening, compared with 8TQ
Source text: Candidate compounds according to embodiments of the present invention were synthesized as described herein. […] In brief, this Rpn11 bioassay employs a fluorescent polarization readout based on the ability of the 26S proteasome to cleave the protein substrate including four tandem ubiquitin proteins fused to a peptide having a unique cysteine labeled with a fluorophore. Cleavage of this substrate by Rpn11 at the junction between the fourth ubiquitin and the peptide, releases the low molecular weight fluorescent peptide. Accordingly, inhibition of fluorescence correlates with inhibition of Rpn11. Inhibition is reported as the half maximal inhibitory concentration (IC50) for the candidate compound.
Rpn11 Activity Assay. […] In brief, in order to measure the Rpn11 activity, a synthetic peptide substrate, termed Ub4-pepOG, was engineered. […] Peptide substrate Ub4-pepOG consists of only 30 amino acids and therefore the decrease of polarization is mainly from deubiquitination but not the proteolysis of the peptide. Fluorescence polarization assay was performed in a low-volume 384 well solid black plate where the components are added in the follow sequence: 1) 5 μl compound in 3% DMSO or 3% DMSO control 2) 5 μl 26S proteasome (Enzo Life Sciences Inc, NY). […] Fluorescence polarization is measured using a PHERAstar (BMG labtech, Ortenberg, Germany) plate reader with excitation of 480 nm and emission of 520 nm filter set. […] Rpn11 activity was normalized to DMSO control and fitted using does-response curve.

AMSH = AMSH (Homo sapiens (Human), UniProt O95630); assay: AMSH activity assay (DiUb^K63TAMRA cleavage, fluorescence); type: biochemical; conditions: Table 2
Source text: AMSH Activity Assay. AMSH is known to selectively cleave ubiquitin chains in which the ubiquitins are joined via K63 of the proximal ubiquitin linked by an isopeptide bond to the carboxy terminus of the distal ubiquitin. […] In brief, DiUb^K63TAMRA was labeled with quench pairs TAMRA/QXL.

Csn5 = Csn5 (Homo sapiens (Human), UniProt Q92905); assay: Csn5 activity assay (fluorescence polarization, SCF^skp2-Nedd8OG, COP9 Signalosome Complex); type: biochemical; conditions: Table 2
Method: Csn5 Activity Assay. […] In brief, a fluorescent substrate termed SCF^skp2-Nedd8OG was produced to measure CSN5 activity in vitro. This assay measures the decrease in fluorescence polarization due to the decrease in apparent molecular weight of Oregon Green (OG) fluorophore (from the ˜175 kDa substrate to ˜9 kDa Nedd8OG) as a result of Csn5-mediated cleavage of the isopeptide bond that links Nedd8OG to SCF^Skp2. The assay was performed in a low-volume 384 well solid black plate comprising equal volumes of compound, substrate (SCF^skp2-Need8OG) and enzyme (purified COP9 Signalosome Complex, CSN). Fluorescence polarization was recorded using the same setting as for the Rpn11 activity assay.

Ub^G76V-GFP = assay: Reporter degradation assay in Hela cells expressing Ub^G76V-GFP; type: cell-based; conditions: after MG132 removal, cycloheximide chase
Method: Characterization of the Compound Activity in Cells. […] After 4 hours, MG132 was removed and a cycloheximide (CHX) chase was initiated +/− different concentrations of test compound and the rate of reporter degradation was evaluated by monitoring GFP fluorescence by high throughput microscopy. The rate of fluorescence decrease was normalized to DMSO control and analyzed using does-response equation.

Rpn11 [2] = biological target: T1, Rpn11; assay: Rpn11 activity assay (fluorescence polarization, Ub4-pepOG cleavage by 26S proteasome); type: biochemical; conditions: does not inhibit Csn5 or AMSH with the same potency as Rpn11
[3] = Table 1, metal binding pharmacophore fragments
[4] = Table 2, 1 mM DTT in assay reduces disulfides to monomeric active species

T1 sequence (O00487 whole entry, looked up, the tested form may be a part): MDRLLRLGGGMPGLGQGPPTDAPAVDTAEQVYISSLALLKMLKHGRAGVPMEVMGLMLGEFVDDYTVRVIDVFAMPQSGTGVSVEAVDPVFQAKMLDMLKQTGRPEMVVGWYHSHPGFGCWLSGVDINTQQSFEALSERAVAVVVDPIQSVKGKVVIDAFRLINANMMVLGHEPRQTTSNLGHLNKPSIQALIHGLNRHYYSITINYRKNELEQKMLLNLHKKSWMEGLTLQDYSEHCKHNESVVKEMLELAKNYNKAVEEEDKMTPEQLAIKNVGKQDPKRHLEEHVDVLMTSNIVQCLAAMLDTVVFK
AMSH, sequence (O95630 whole entry): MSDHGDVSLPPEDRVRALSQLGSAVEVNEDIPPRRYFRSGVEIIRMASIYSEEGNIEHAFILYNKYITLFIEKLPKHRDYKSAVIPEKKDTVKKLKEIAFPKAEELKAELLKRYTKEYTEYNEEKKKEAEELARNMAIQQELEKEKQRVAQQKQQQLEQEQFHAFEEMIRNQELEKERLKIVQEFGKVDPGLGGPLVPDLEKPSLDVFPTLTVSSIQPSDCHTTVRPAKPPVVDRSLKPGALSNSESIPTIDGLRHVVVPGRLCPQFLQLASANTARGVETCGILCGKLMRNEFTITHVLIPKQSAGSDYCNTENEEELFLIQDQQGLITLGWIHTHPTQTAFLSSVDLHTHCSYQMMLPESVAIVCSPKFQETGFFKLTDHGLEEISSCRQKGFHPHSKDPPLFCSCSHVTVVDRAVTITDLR

Compound | IC50 (AMSH) | IC50 (Csn5) | IC50 (Ub^G76V-GFP; Homo sapiens) | IC50 (Rpn11 [1]; [4]) | further results
Sc1cccc2ccccc12 [reference compound] | – | – | – | – | IC50 (Rpn11 [1]; [3]): > 100 µM
O=C(NCc1ccccc1)c1cnc2c(SSc3cccc4cc(C(=O)NCc5ccccc5)cnc34)cccc2c1 [Compound 16, 8,8′-Disulfanediylbis(N-benzylquinoline-3-carboxamide)] | 15 µM | 11 µM | > 10 µM | 1.1 µM | –
O=C(NCc1cccs1)c1ccc2cccc(SSc3cccc4ccc(C(=O)NCc5cccs5)nc34)c2n1 [8,8′-Disulfanediylbis(N-(thiophen-2-ylmethyl)quinoline-2-carboxamide)] | – | – | – | – | Rpn11 assay activity (in words) (Rpn11 [1]): less active than 8TQ
Oc1cccc2cccnc12 [reference compound] | – | – | – | – | IC50 (Rpn11 [1]; [3]): > 100 µM
O=C(NCCc1cccs1)c1cnc2c(SSc3cccc4cc(C(=O)NCCc5cccs5)cnc34)cccc2c1 [Compound 11, 8,8′-Disulfanediylbis(N-(2-(thiophen-2-yl)ethyl)quinoline-3-carboxamide)] | 1.3 µM | 4 µM | – | 0.3 µM | specificity for Rpn11 versus Csn5 and/or AMSH (in words) (Rpn11 [2]): specific inhibitors of Rpn11
O=C(NCc1ccncc1)c1cnc2c(SSc3cccc4cc(C(=O)NCc5ccncc5)cnc34)cccc2c1 [Compound 15, 8,8′-Disulfanediylbis(N-(pyridin-4-ylmethyl)quinoline-3-carboxamide)] | 0.5 µM | 7 µM | – | 0.2 µM | IC50 (Ub^G76V-GFP): > 10 µM; specificity for Rpn11 versus Csn5 and/or AMSH (in words) (Rpn11 [2]): specific inhibitors of Rpn11
O=C(NCc1cccnc1)c1cnc2c(SSc3cccc4cc(C(=O)NCc5cccnc5)cnc34)cccc2c1 [Compound 14, 8,8′-Disulfanediylbis(N-(pyridin-3-ylmethyl)quinoline-3-carboxamide)] | 3.52 µM | 128 µM | > 10 µM | 3.1 µM | –
Nc1cccc2cccnc12 [reference compound] | – | – | – | – | IC50 (Rpn11 [1]; [3]): > 100 µM
CSc1cccc2cccnc12 [reference compound] | – | – | – | – | IC50 (Rpn11 [1]; [3]): > 100 µM
O=C(NCCc1ccco1)c1cnc2c(SSc3cccc4cc(C(=O)NCCc5ccco5)cnc34)cccc2c1 [Compound 10, 8,8′-Disulfanediylbis(N-(2-(furan-2-yl)ethyl)quinoline-3-carboxamide)] | 1.7 µM | 6.9 µM | 1.4 µM | – | –
COc1ccc(CNC(=O)c2cnc3c(SSc4cccc5cc(C(=O)NCc6ccc(OC)cc6)cnc45)cccc3c2)cc1 [Compound 19, 8,8′-Disulfanediylbis(N-(4-methoxybenzyl)quinoline-3-carboxamide)] | 0.6 µM | 0.5 µM | > 10 µM | – | specificity for Rpn11 versus Csn5 and/or AMSH (in words) (Rpn11 [2]): specific inhibitors of Rpn11
O=C(O)c1ccc2cccc(SSc3cccc4ccc(C(=O)O)nc34)c2n1 [Compound 14b, 8,8′-Disulfanediylbis(quinoline-2-carboxylic acid)] | – | – | – | – | Rpn11 assay activity (in words) (Rpn11 [1]): less active than 8TQ
O=C(NCC1CCCO1)c1cnc2c(SSc3cccc4cc(C(=O)NCC5CCCO5)cnc34)cccc2c1 (stereo not shown) [Compound 6, 8,8′-Disulfanediylbis(N-((tetrahydrofuran-2-yl)methyl)quinoline-3-carboxamide)] | 6.8 µM | 41.3 µM | – | 4.6 µM | –
O=C(NCc1ccco1)c1cnc2c(SSc3cccc4cc(C(=O)NCc5ccco5)cnc34)cccc2c1 [Compound 7, 8,8′-Disulfanediylbis(N-(furan-2-ylmethyl)quinoline-3-carboxamide)] | 0.9 µM | 0.2 µM | – | 0.9 µM | –
O=C(NCc1ccc2c(c1)OCO2)c1cnc2c(SSc3cccc4cc(C(=O)NCc5ccc6c(c5)OCO6)cnc34)cccc2c1 [Compound 20, 8,8′-Disulfanediylbis(N-(benzo[d][1,3]dioxol-5-ylmethyl)quinoline-3-carboxamide)] | – | 7 µM | > 10 µM | 0.9 µM | –
O=C(Nc1nccs1)c1cnc2c(SSc3cccc4cc(C(=O)Nc5nccs5)cnc34)cccc2c1 [Compound 5, 8,8′-Disulfanediylbis(N-(thiazol-2-yl)quinoline-3-carboxamide)] | 3.3 µM | 32 µM | – | – | specificity for Rpn11 versus Csn5 and/or AMSH (in words) (Rpn11 [2]): specific inhibitors of Rpn11

Compound | IC50 (AMSH) | IC50 (Csn5) | IC50 (Ub^G76V-GFP; Homo sapiens) | IC50 (Rpn11 [1]; [4]) | further results
CNC(=O)c1cnc2c(SSc3cccc4cc(C(=O)NC)cnc34)cccc2c1 [Compound 2, 8,8′-Disulfanediylbis(N-methylquinoline-3-carboxamide)] | 4.8 µM | 68 µM | – | – | –
Sc1cccc2ncccc12 [reference compound] | – | – | – | – | IC50 (Rpn11 [1]; [3]): > 100 µM
O=C(NCc1ccccn1)c1cnc2c(SSc3cccc4cc(C(=O)NCc5ccccn5)cnc34)cccc2c1 [Compound 13, 8,8′-Disulfanediylbis(N-(pyridin-2-ylmethyl)quinoline-3-carboxamide)] | 16.7 µM | 56.7 µM | > 10 µM | 3.9 µM | –
O=C(NCCc1nccs1)c1cnc2c(SSc3cccc4cc(C(=O)NCCc5nccs5)cnc34)cccc2c1 [Compound 12, 8,8′-Disulfanediylbis(N-(2-(thiazol-2-yl)ethyl)quinoline-3-carboxamide)] | – | 30 µM | 0.57 µM | – | specificity for Rpn11 versus Csn5 and/or AMSH (in words) (Rpn11 [2]): specific inhibitors of Rpn11
O=C(NCc1cccs1)c1cnc2c(SSc3cccc4cc(C(=O)NCc5cccs5)cnc34)cccc2c1 [Compound 8, 8,8′-Disulfanediylbis(N-(thiophen-2-ylmethyl)quinoline-3-carboxamide)] | 1.3 µM | 16 µM | – | 0.8 µM | –
Cc1ccc2cccc(S)c2n1 [Compound 9c, 2-Methylquinoline-8-thiol] | – | – | – | – | Rpn11 assay activity (in words) (Rpn11 [1]): less active than 8TQ
Sc1ccnc2cccnc12 [Compound 8e, 1,5-Naphthyridine-4-thiol] | – | – | – | – | IC50 (Rpn11 [1]; [3]): 15 µM
O=C(NCc1ccc(F)cc1)c1cnc2c(SSc3cccc4cc(C(=O)NCc5ccc(F)cc5)cnc34)cccc2c1 [Compound 17, 8,8′-Disulfanediylbis(N-(4-fluorobenzyl)quinoline-3-carboxamide)] | 0.85 µM | 18 µM | > 10 µM | – | specificity for Rpn11 versus Csn5 and/or AMSH (in words) (Rpn11 [2]): specific inhibitors of Rpn11
O=C(CCCC[C@@H]1SC[C@@H]2NC(=O)N[C@@H]21)NCCOCCOCCOCCNC(=O)c1cnc2c(S)cccc2c1 [Compound 32] | 0.4 µM | 13.8 µM | 4.1 µM | 0.4 µM | –
O=C(NCc1ccccc1)c1ccc2cccc(SSc3cccc4ccc(C(=O)NCc5ccccc5)nc34)c2n1 [8,8′-Disulfanediylbis(N-benzylquinoline-2-carboxamide)] | – | – | – | – | Rpn11 assay activity (in words) (Rpn11 [1]): less active than 8TQ
O=C(NCc1ccc(N2CCOCC2)cc1)c1cnc2c(SSc3cccc4cc(C(=O)NCc5ccc(N6CCOCC6)cc5)cnc34)cccc2c1 [Compound 21, 8,8′-Disulfanediylbis(N-(4-morpholinobenzyl)quinoline-3-carboxamide)] | – | – | > 10 µM | 0.8 µM | –
O=C(NCc1nccs1)c1cnc2c(SSc3cccc4cc(C(=O)NCc5nccs5)cnc34)cccc2c1 [Compound 9, 8,8′-Disulfanediylbis(N-(thiazol-2-ylmethyl)quinoline-3-carboxamide)] | 7.8 µM | 23 µM | – | – | specificity for Rpn11 versus Csn5 and/or AMSH (in words) (Rpn11 [2]): specific inhibitors of Rpn11
O=C(NCCN1CCOCC1)c1cnc2c(SSc3cccc4cc(C(=O)NCCN5CCOCC5)cnc34)cccc2c1 [Compound 22, 8,8′-Disulfanediylbis(N-(2-morpholinoethyl)quinoline-3-carboxamide)] | 25.4 µM | 99 µM | > 10 µM | 6.4 µM | –
Sc1cccc2cccnc12 [Compound 8TQ, 8-thioquinoline, reference compound] | – | – | – | – | IC50 (Rpn11 [1]; [3]): 2.8 ± 0.35 µM; Rpn11 assay activity (in words) (Rpn11 [1]): highly potent fragment
Cc1cccc2cccnc12 [reference compound] | – | – | – | – | IC50 (Rpn11 [1]; [3]): > 100 µM
COC(=O)c1ccc2cccc(SSc3cccc4ccc(C(=O)OC)nc34)c2n1 [Dimethyl 8,8′-disulfanediylbis(quinoline-2-carboxylate)] | – | – | – | – | Rpn11 assay activity (in words) (Rpn11 [1]): less active than 8TQ
